Results taken from article PMC12501029, “Discovery of a CNS active GSK3 degrader using orthogonally reactive linker screening” (Nature Communications, 2025).

Experiment: Cassette PK study with 22, 25 and 26
Format: in vivo, female Balb/c mice
Conditions: i.v. bolus cassette 0.5 mg/kg; for AUC(0-t) / clearance: female, Balb/c, mouse, iv, whole blood; for clearance: read-out: Cl_obs
Description: Fifteen female mice of the Balb/c strain were obtained from Charles River Laboratories, UK. Animals were maintained under a 12-h light/12-h dark cycle, in Thoren mouse caging containing EC0 aspen bedding (DBM, UK), with 'Sizzlenest' and 'Rodent Rolls' nesting material (DBM). Enrichment materials included aspen chew sticks, cardboard houses, tunnels, swings, and sunflower seeds. All animals had ad libitum access to food (5LF2 Extruded Diet, IPS Ltd, UK) and tap water throughout. Temperature and relative humidity were maintained between 19 °C–24 °C and 45%–65%, respectively. All animals received a minimum of 10 days of acclimatisation prior to the start of the study.
The cassette formulation (22, 25 and 26) was prepared by producing separate stock solutions of each compound dissolved in DMSO (dimethyl sulfoxide) at a concentration of 6 mg/mL. Aliquots of each stock solution were combined in equal parts to produce a stock solution containing 2 mg/mL of each compound. This solution was then diluted with Polyethylene glycol 400 (PEG400), followed by drop-wise addition of sterile water. The final formulation consisted of 5% DMSO, 40% PEG400, and 55% water, and contained 0.1 mg/mL of each compound. For the cassette PK study, three female Balb/c mice were dosed via a bolus intravenous injection at a dose level of 0.5 mg/kg per compound (5 mL/kg). Serial blood samples (10 µL per sample) were collected from the lateral tail vein of each mouse at 5, 15 and 30 min, 1, 2, 4, 6, 8, and 24 h after dose administration. All blood samples were diluted into 90 µL of Milli‑Q ultrapure water and stored at −20 °C prior to bioanalysis. The concentration of 22, 25 and 26 in blood and brain was determined by UPLC-MS/MS.
Blood samples (10 µL) from study mice were diluted 1× with 90 µL of water immediately when the sample was taken. All calibration, quality control, blanks and double blank samples (all 100 µL volume) were mixed (vortexed) with 300 µL of LCMS grade acetonitrile to precipitate proteins.
For study samples, a volume (30 µL) was mixed (vortexed) with a volume (90 µL) of acetonitrile to precipitate proteins. After protein precipitation, all samples were centrifuged to pellet the proteins. Study samples in Micronics tubes were centrifuged using a Beckman Coutler Allegra C-12R Centrifuge for 10 min at 3750 rpm. All other samples in Eppendorf tubes were centrifuged using a Sigma SciQuip 1–14 centrifuge for 10 min (14,800 rpm/16,163 × g). Supernatant from study samples (80 µL) and calibration samples, QCs, blanks, and double blanks (200 µL) were then transferred to HPLC glass vials containing Milli-Q water (40 µL or 100 µL, respectively), ready for LCMS analysis.

Compound	AUC(0-t) [ng·h/mL]	clearance [mL/min/kg]	Cl_obs	Half_Life [h]	Vss_obs [L/kg]
O=C1CCC(NC(=O)c2ccc(CN3CCN(Cc4ccc(-c5cn(-c6ccc(-c7cn8nccc(C(=O)Nc9cnccc9N9CCOCC9)c8n7)cc6)nn5)nc4)CC3)cn2)C(=O)N1 (stereo not shown) [compound 22]	444	12	moderate	2.8	2.8
Cn1nc(N2CCC(=O)NC2=O)c2ccc(CN3CCN(CCCc4cn(-c5ccc(-c6cn7nccc(C(=O)Nc8cnccc8N8CCOCC8)c7n6)cc5)nn4)CC3)cc21 [compound 26]	590	8	moderate	2.7	1.9
